Test results from patent publication US20160115200A1, “New Use for JNK Inhibitor Molecules for Treatment of Various Diseases” (XIGEN INFLAMMATION LTD., priority 2013, published 2016).
Square brackets hold non-standard residues; d marks the D form. Ends that are not written are not given here.

Experiments:
[1] = tested on: primary rat lymph-nodes purified T cells; experiment: CD3/CD28-induced IL-2 release in primary rat lymph-nodes purified T cells; type: cell-based; conditions: inhibitor 1 h before CD3/CD28 (2 μg/mL), supernatant after 24 h
Description: Control rat were sacrificed and lymph-nodes were harvested. T cells further were purified (using magnetic negative selection) and plated into 96-well plates at 200.000 cells/well. Cells were treated with anti-rat CD3 and anti-rat CD28 antibodies (2 μg/mL). JNK inhibitor with SEQ ID NO: 172 was added to the cultures 1 h before CD3/CD28 treatment and IL-2 release was assessed in supernatant 24 h after treatment.
Control animal were sacrificed, lymph nodes (LN) were harvested and kept in complete RPMI medium. LN were smashed with complete RPMI on 70 μm filter using a 5 ml piston. A few drops of media were added to keep strainer wet. Cells were centrifuged for 7 min at 450 g and 4° C. Pellet was resuspended in 5 ml fresh medium. Cells were passed again through cell strainer. An aliquot of cells was counted, while cells were centrifuged again 10 min at 1400 rpm and 4° C. Cells were resupended in MACS buffer (80 μl of MACS buffer per 10^7 cells). 10 μl of anti-rat MHC microbeads were added per 10 million cells, cells were incubated for 15 min at 4°-8° C. Cells were washed with 15 ml MACS buffer and centrifuge for 7 min at 700 g and 4° C. […] Resuspended cells were counted and plated at density of 200000 cells/well in 100 μl of complete medium. […] Cytokines were then measured using standard Elisa kits. Results are expressed as pg/ml of supernatant of the measured cytokine. […]

[2] = tested on: endotoxins-induced uveitis albino rat model; experiment: Endotoxins-induced uveitis (EIU), single intravenous injection, clinical scoring 24 h after LPS; type: in vivo; set-up: key to EIU clinical score, median: clinical score per eye, 0 to 4 scale
Description: The aim of this study was to determine the effects of single intravenous injections of SEQ ID NO: 172 (0.015, 0.18, and 1.80 mg/kg) on the inflammatory response in an endotoxins-induced uveitis albino rat model and to compare these affects to those obtained with prior art JNK inhibitor of SEQ ID NO: 197 (2 mg/kg). As a further control served phosphate sodic dexamethasone.
Sixty (60) male Lewis rats were randomly divided into six (6) groups of ten (10) animals each. EIU was induced by footpad injection of lipopolysaccharide (LPS, 1 mg/kg). NaCl (0.9%), SEQ ID NO: 197 at 2 mg/kg and SEQ ID NO: 172 at three concentrations (1.80 mg/kg, 0.18 mg/kg and 0.015 mg/kg) were administered by intravenous injection. Phosphate sodic dexamethasone (20 μg/eye) was administered by sub-conjunctival injection in both eyes. 24 hours after LPS injection, inflammatory response was evaluated by clinical scoring.
The intensity of clinical ocular inflammation was scored on a scale from 0 to 4 for each eye: […]

[3] = tested on: mouse model of scopolamine-induced dry eye; experiment: Scopolamine-induced dry eye in mice (TBUT, PRTT, histopathology); type: in vivo
From the text: The objective of this study was to assess the effects of two different compounds, the all-D-retro-inverso JNK-inhibitor (poly-)peptide of SEQ ID NO: 197 and the JNK inhibitor (poly-)peptide of SEQ ID NO: 172, at three dose levels in a mouse model of scopolamine-induced dry eye.
The study consisted of a total of 9 groups of female C57BL/6 mice, comprising 8 groups of 12 mice each and an additional group of 4 mice. Bilateral short-term dry eye was induced by a combination of scopolamine hydrobromide (Sigma-Aldrich Corp., St. Louis, Mo.) injection (subcutaneous (SC), four times daily, 0.5 mg/dose, Days 0-21) and by exposing mice to the drying environment of constant air draft. […] Mice of Group 9 were maintained as un-induced, (no dry eye) untreated controls.
During the in-life (treatment) period, clinical observations were recorded once daily; slit-lamp examination (SLE) with corneal fluorescein staining, tear break-up time test (TBUT), and phenol red thread test (PRTT) were performed three times per week. Necropsies were performed on Day 22; eyes, eye lids, conjunctivae, and lacrimal glands were collected from both eyes of each animal. Tissues from the right eyes (oculus dexter, OD) were fixed and then evaluated microscopically. Tissues from the left eyes (oculus sinister; OS) were flash-frozen in liquid nitrogen and stored frozen at −80° C. for possible subsequent analyses.
The TBUT test was conducted three times weekly by measuring the time elapsed in seconds between a complete blink after application of fluorescein to the cornea and the appearance of the first random dry spot in the tear film. […] At least ninety seconds later, corneal epithelial damage was graded using a slit-lamp with a cobalt blue filter after another drop of 0.1% fluorescein was reapplied to the cornea; the cornea then was scored per the Draize ocular scale.
Tear production was measured three times a week in both eyes using PRTT test strips (Zone-Quick; Menicon, Nagoya, Japan). Prior to the first treatment of the day, a thread was applied to the lateral canthus of the conjunctival fornix of each eye for 30 seconds under slit-lamp biomicroscopy. Tear migration up the tread (i.e., the length of the wetted cotton thread) was measured using a millimeter scale.
At necropsy on Day 22, both eyes from each animal, including the globes, lacrimal glands, eyelids, and conjunctivae, were excised. The right eye and associated tissues were fixed by overnight submersion in modified Davidson's solution followed by transfer to 10% neutral buffered formalin (NBF). The fixed tissues of the right eye were dehydrated, embedded in paraffin, sectioned at 3 to 5-μm thicknesses, and slide-mounted tissues were stained with hematoxylin and eosin (H & E). Stained slides were evaluated via light microscopy. Detailed and complete histopathologic assessment was conducted on all parts of the eye, with at least two section levels being examined histopathologically for each right eye. Special attention was paid to the cornea, epithelia (including goblet cells) of the conjunctiva and cornea, as well as the lacrimal gland. These tissues were scored for injury based upon a 0-4 scale, with 0 being normal, 1 being minimal, 2 being mild, 3 being moderate, and 4 being severe. For each cornea, scores were based on corneal epithelium thickness, and corneal inflammation. Conjunctivae were scored for erosion and inflammation as well as presence or absence of goblet cells.

[4] = 2 mg/kg i.v., 24 hours after LPS

## dqsrpvqpflnlttprkprpprrrqrrkkrg ([dD][dQ][dS][dR][dP][dV][dQ][dP][dF][dL][dN][dL][dT][dT][dP][dR][dK][dP][dR][dP][dP][dR][dR][dR][dQ][dR][dR][dK][dK][dR]G) [SEQ ID NO: 197, reference compound]
[1]
  CD3/CD28-induced IL-2 release: Dose-dependent inhibition
[2]; [4]
  EIU clinical score, median: 2
  decrease of EIU scores compared with vehicle group: 40%
[2]; 2 mg/kg i.v., 24 hours after LPS, scale 0 to 4 (+1)
  EIU clinical score, mean±SEM: 2.2±0.3
[2]; single intravenous injection 2 mg/kg
  endotoxin-induced inflammation in the anterior chamber: partially prevented the endotoxin-induced inflammation
[3]; Day 7-21, high dose 0.6% (SEQ ID NO: 197 Group 4; SEQ ID NO: 172 Group 7)
  Mean PRTT AUC: 43.17
[3]; Day 7-21, low dose (SEQ ID NO: 197 0.06% Group 2; SEQ ID NO: 172 0.05% Group 5)
  Mean PRTT AUC: 39.96
[3]; Day 7-21, mid dose (SEQ ID NO: 197 0.25% Group 3; SEQ ID NO: 172 0.2% Group 6)
  Mean PRTT AUC: 42.79
[3]; Day 7 to Day 21, high dose 0.6% (SEQ ID NO: 197 Group 4; SEQ ID NO: 172 Group 7)
  Mean Calculated TBUT AUC: 89.98
[3]; Day 7 to Day 21, low dose (SEQ ID NO: 197 0.06% Group 2; SEQ ID NO: 172 0.05% Group 5)
  Mean Calculated TBUT AUC: 88.54
[3]; Day 7 to Day 21, mid dose (SEQ ID NO: 197 0.25% Group 3; SEQ ID NO: 172 0.2% Group 6)
  Mean Calculated TBUT AUC: 91.19
[3]; SEQ ID NO: 197 0.06%, 0.25% and 0.6%, Groups 2, 3 and 4
  PRTT change with dose: generally dose-dependent increases in PRTT
[3]; SEQ ID NO: 197 low, mid and high dose (Groups 2-4)
  TBUT change with dose: slight generally dose-dependent increases in TBUT
[3]; low dose SEQ ID NO: 197 (Group 2)
  corneal changes (histology) compared with other treatment groups: slightly more severe
[3]; mid and high-dose SEQ ID NO: 172 (Groups 6, 7), high-dose SEQ ID NO: 197 (Group 4)
  histological cornea scores compared with cyclosporine group: not significantly different than the cyclosporine group scores
